Laboratory results: the NIST ThermoML archive (doi:10.1016/j.jct.2017.08.035)
Numbers after ± are expanded uncertainties.

Conditions: for surface tension liquid-gas: Maximal bubble pressure; for mass density: 100 kPa, Liquid, Vibrating tube method

Structure (SMILES)	surface tension liquid-gas (298.15 K) [mN/m]	mass density (298.15 K) [kg/m3]	surface tension liquid-gas (303.15 K) [mN/m]	mass density (303.15 K) [kg/m3]	surface tension liquid-gas (308.15 K) [mN/m]	mass density (308.15 K) [kg/m3]	surface tension liquid-gas (313.15 K) [mN/m]	mass density (313.15 K) [kg/m3]	surface tension liquid-gas (318.15 K) [mN/m]	mass density (318.15 K) [kg/m3]	surface tension liquid-gas (323.15 K) [mN/m]	mass density (323.15 K) [kg/m3]	surface tension liquid-gas (328.15 K) [mN/m]	mass density (328.15 K) [kg/m3]	surface tension liquid-gas (333.15 K) [mN/m]	mass density (333.15 K) [kg/m3]	surface tension liquid-gas (338.15 K) [mN/m]	mass density (338.15 K) [kg/m3]
CCn1cc[n+](CCOC)c1.O=S(=O)([N-]S(=O)(=O)C(F)(F)F)C(F)(F)F	36 ± 0.4	1463.13 ± 2.4	35.8 ± 0.4	1458.11 ± 2.4	35.5 ± 0.4	1453.11 ± 2.4	35.2 ± 0.4	1448.12 ± 2.4	35 ± 0.4	1443.16 ± 2.4	34.7 ± 0.4	1438.21 ± 2.4	34.4 ± 0.4	1433.29 ± 2.4	34.1 ± 0.4	1428.39 ± 2.4	33.9 ± 0.4	1423.51 ± 2.4
CCn1cc[n+](CCOC)c1.O=S(=O)([O-])C(F)(F)F	38 ± 0.4	1355.89 ± 4.6	37.7 ± 0.4	1351.61 ± 4.6	37.4 ± 0.4	1347.35 ± 4.6	37.1 ± 0.4	1343.11 ± 4.6	36.9 ± 0.4	1338.88 ± 4.6	36.5 ± 0.4	1334.67 ± 4.6	36.3 ± 0.4	1330.48 ± 4.6	36.1 ± 0.4	1326.3 ± 4.6	35.8 ± 0.4	1322.12 ± 4.6
CC(=O)[O-].CCn1cc[n+](CCOC)c1 [1-ethyl-3-(2-methoxyethyl)imidazolium acetate]	46 ± 0.5	1192.38 ± 4.6	45.7 ± 0.5	1189.07 ± 4.6	45.4 ± 0.5	1185.74 ± 4.6	45.1 ± 0.5	1182.43 ± 4.6	44.8 ± 0.5	1179.14 ± 4.6	44.5 ± 0.5	1175.86 ± 4.6	44.3 ± 0.5	1172.58 ± 4.6	44.1 ± 0.5	1169.35 ± 4.6	43.9 ± 0.5	1166.13 ± 4.6
CCn1cc[n+](CCOC)c1.N#C[N-]C#N [1-ethyl-3-(2-methoxyethyl)imidazolium dicyanamide]	44.6 ± 0.5	1113.6 ± 4.6	44.3 ± 0.5	1110.21 ± 4.6	44 ± 0.5	1106.83 ± 4.6	43.7 ± 0.5	1103.48 ± 4.6	43.4 ± 0.5	1100.15 ± 4.6	43.1 ± 0.5	1096.84 ± 4.6	42.9 ± 0.5	1093.53 ± 4.6	42.7 ± 0.4	1090.26 ± 4.6	42.4 ± 0.4	1087 ± 4.6
CCn1cc[n+](CCOC)c1.N#C[S-] [1-ethyl-3-(2-methoxyethyl)imidazolium thiocyanate]	49 ± 0.5	1122.11 ± 4.6	48.7 ± 0.5	1118.89 ± 4.6	48.4 ± 0.5	1115.69 ± 4.6	48 ± 0.5	1112.52 ± 4.6	47.7 ± 0.5	1109.37 ± 4.6	47.5 ± 0.5	1106.23 ± 4.6	47.3 ± 0.5	1103.12 ± 4.6	47.1 ± 0.5	1100.01 ± 4.6	46.7 ± 0.5	1096.92 ± 4.6
